# Tests used:
# H-2K^b = H-2K^b (Mus musculus, UniProt P01901, A160C/Y105C); assay: Differential Scanning Fluorimetry of pMHC thermal melting; assay type: binding; conditions: DSF, 50 mM HEPES pH 7.5, SYPRO Orange; Tm averaged from 3 experiments; compared to mLAMA4
# [1] = tested on: antigen-specific CD8 T cells in KP lung adenocarcinoma; assay type: in vivo, mouse; conditions: 5–6 weeks; for CD8 T cell response magnitude, antigen expressed alone: LucA (mALG8) or LucL (mLAMA4); for proportion of TCF1+ progenitor cells, antigens co-expressed / CD8 T cell response magnitude, antigens co-expressed: LucAL; for CD8 T cell response magnitude, antigens co-expressed: compared to the single-antigen setting
# Sequence of H-2K^b (P01901 22-295 Y105C/A160C limits assumed): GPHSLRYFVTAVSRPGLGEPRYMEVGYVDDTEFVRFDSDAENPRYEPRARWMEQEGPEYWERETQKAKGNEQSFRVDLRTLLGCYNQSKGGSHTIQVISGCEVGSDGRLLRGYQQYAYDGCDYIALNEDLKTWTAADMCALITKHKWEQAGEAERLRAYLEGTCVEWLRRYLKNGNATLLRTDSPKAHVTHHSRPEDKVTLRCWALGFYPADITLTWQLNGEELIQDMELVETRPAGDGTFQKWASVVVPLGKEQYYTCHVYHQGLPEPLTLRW
# Sequence of H-2K^b (P61769 21-119 partner): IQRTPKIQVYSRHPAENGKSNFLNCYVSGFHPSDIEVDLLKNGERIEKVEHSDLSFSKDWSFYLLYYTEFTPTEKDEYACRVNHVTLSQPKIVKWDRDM
Sequence,"pMHC complex stability (Koff), relative to mLAMA4 (H-2K^b)","CD8 T cell response magnitude, antigen expressed alone [1]","proportion of TCF1+ progenitor cells, antigens co-expressed [1]","CD8 T cell response magnitude, antigens co-expressed [1]"
ITYTWTRL [mALG8],"similar, but slightly lower affinity and stability",responses of equivalent magnitude,"increased for both responses (Figure S3M), trending towards greater enrichment for the mALG8 response","neither response became dominant in terms of T cell expansion, but both decreased in magnitude compared to the single-antigen setting"
VGFNFRTL [mLAMA4],,responses of equivalent magnitude,increased for both responses,"neither response became dominant in terms of T cell expansion, but both decreased in magnitude compared to the single-antigen setting"

# From article PMC8522630 (Cell, 2021)
